Measurements: paper PMC4488959, “Structural Features of a Bacteroidetes-Affiliated Cellulase Linked with a Polysaccharide Utilization Locus” (Scientific Reports, 2015)

Biological target: T1, AC2aCel5A (Bacteroidetes bacterium AC2a, UniProt A0A076MPD7, E189A)
T1 construct: signal peptide (residues 1-18) removed; mature 397 residues + C-terminal eight-residue His6-tag (405 residues), tag kept; synthetic gene, pNIC-CH, Escherichia coli
Assay: X-ray crystal structure (co-crystallization with […] cellotetraose)
Type: binding
Settings: 2.4 Å; subsites -3 to -1, molecule A only; crystals from 0.2 M potassium nitrate, 20% w/v PEG 3350; catalytically inactive mutant; authors consider that bound ligand is likely cellotetraose with fourt

T1 sequence (A0A076MPD7 entry or part of it E189A): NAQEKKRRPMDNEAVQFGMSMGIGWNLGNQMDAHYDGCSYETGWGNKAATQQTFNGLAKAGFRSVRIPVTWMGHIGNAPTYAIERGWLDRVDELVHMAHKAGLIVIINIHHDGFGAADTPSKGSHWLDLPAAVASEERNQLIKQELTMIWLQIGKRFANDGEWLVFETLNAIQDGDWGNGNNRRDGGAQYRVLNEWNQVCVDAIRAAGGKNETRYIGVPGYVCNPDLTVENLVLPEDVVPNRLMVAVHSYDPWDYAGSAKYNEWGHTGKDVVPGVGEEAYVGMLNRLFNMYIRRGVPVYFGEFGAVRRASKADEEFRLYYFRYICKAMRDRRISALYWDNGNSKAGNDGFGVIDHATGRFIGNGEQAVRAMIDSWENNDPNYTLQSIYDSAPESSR

OC[C@H]1O[C@@H](O[C@H]2[C@H](O)[C@@H](O)[C@H](O[C@H]3[C@H](O)[C@@H](O)C(O)O[C@@H]3CO)O[C@@H]2CO)[C@H](O)[C@@H](O)[C@@H]1O (stereo partly shown) [cellotriose]
X-ray crystal structure (co-crystallization with 5 mM cellotetraose): Additional electron density was observed in the active-site cleft of molecule A, and was refined
